# Reference: patent publication US12428380B2 (PSYLO PTY LTD, priority 2023, dated 2025)
# Legend:
# Format in all cases: cell-based
# 5-HT2B = molecular target: T1, 5-HT2B (Homo sapiens, UniProt P41595); assay: Activation in a similar Ca2+ flux assay at a single concentration, 5-HT2B; details: head prints 10 µM
# T1 construct: host or cells: CHO-K1
# Method: Activity at 5-HT2A, 5-HT2B and 5-HT2C receptors was determined using a FLIPR Ca2+ flux assay at WuXi AppTec Co. Ltd. (Hong Kong) Discovery Biology Unit according to their standard protocols. Briefly, stably transfected cells expressing the receptor of interest (HEK293 for 5-HT2A and 5-HT2C; CHO-K1 for 5-HT2B) were grown and plated in a 384 well plate and incubated at 37° C. and 5% CO2 overnight. A 250 mM stock solution of probenecid in FLIPR calcium assay buffer (10 mL) was freshly prepared and combined with a fluorescent dye (Fluo-4 Direct) to give a final assay concentration of 2.5 mM. Reference compounds were 4-fold serially diluted and the screening compounds were 3-fold serially diluted in 100% DMSO for 10 points using Agilent Bravo, and 750 nL was added to a 384 well compound plate using Echo along with 30 μL assay buffer. The fluorescent dye was then added to the assay plate along with assay buffer to a final volume of 40 μL. The cell plate was incubated for 50 min at 37° C. and 5% CO2 and placed into the FLIPR Tetra along with the compound plate. 10 μL of references and compounds were then transferred from the compound plate into the cell plate and the fluorescent signal was read.
# Activation data are provided in a similar assay tested at a single 10 μM concentration.
# 5-HT2C = molecular target: T2, 5-HT2C (Homo sapiens, UniProt P28335); assay: FLIPR Ca2+ flux functional assay, 5-HT2C (HEK293); details: HEK293 cells expressing 5-HT2C; for Emax: HEK293, agonist activity; for EC50: agonist activity
# T2 construct: host or cells: HEK293
# T2 sequence (P28335 33-458): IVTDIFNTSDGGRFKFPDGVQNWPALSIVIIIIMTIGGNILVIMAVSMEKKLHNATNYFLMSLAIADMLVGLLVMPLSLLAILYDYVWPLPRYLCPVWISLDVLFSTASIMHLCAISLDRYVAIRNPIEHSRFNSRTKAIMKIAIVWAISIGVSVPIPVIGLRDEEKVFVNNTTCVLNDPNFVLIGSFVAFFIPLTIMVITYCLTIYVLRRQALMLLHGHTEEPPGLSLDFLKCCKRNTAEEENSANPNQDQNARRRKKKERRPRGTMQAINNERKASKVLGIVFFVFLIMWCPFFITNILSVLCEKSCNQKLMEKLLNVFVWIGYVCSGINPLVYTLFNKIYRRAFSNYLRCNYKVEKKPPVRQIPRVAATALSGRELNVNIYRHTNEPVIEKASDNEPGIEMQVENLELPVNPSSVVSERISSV
# 5-HT2A = molecular target: T3, 5-HT2A (Homo sapiens, UniProt P28223); assay: FLIPR Ca2+ flux functional assay, 5-HT2A (HEK293); details: HEK293 cells expressing 5-HT2A; for Emax: HEK293, agonist activity; for EC50: agonist activity
# T3 construct: host or cells: HEK293
# T3 sequence (P28223 whole entry): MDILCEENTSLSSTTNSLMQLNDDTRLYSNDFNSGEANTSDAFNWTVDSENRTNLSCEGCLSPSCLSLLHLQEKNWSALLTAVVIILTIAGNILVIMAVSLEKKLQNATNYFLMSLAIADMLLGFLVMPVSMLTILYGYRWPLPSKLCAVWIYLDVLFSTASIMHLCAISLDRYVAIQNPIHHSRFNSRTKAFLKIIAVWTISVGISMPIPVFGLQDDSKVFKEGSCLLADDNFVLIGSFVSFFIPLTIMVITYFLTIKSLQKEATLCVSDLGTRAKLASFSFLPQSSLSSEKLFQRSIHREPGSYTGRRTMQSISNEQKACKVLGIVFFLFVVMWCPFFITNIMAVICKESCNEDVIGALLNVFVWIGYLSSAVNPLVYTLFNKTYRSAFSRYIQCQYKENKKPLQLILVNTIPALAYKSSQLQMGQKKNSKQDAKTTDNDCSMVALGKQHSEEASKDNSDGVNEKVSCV
# T1 sequence (P41595 whole entry, species assumed): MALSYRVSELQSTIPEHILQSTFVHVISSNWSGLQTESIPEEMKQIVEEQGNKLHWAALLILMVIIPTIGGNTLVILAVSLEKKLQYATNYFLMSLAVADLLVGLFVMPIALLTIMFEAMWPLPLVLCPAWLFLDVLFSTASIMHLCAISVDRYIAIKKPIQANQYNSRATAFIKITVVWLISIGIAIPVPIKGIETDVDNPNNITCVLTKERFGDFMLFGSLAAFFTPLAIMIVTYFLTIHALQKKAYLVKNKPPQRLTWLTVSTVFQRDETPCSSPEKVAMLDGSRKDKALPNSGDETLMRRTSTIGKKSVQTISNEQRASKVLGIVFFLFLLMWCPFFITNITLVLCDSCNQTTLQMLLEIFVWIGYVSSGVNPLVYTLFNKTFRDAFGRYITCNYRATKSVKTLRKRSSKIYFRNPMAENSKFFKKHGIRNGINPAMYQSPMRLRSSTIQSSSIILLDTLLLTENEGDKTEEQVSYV
SMILES,5-HT2B % Activation @ 10 µM (5-HT2B) [%],Emax (5-HT2C) [%],EC50 (5-HT2C) [nM],Emax (5-HT2A) [%],EC50 (5-HT2A) [nM]
"CCN(C)CCc1n[nH]c2cc(F)cc(OC)c12 [Example A39, N-ethyl-2-(6-fluoro-4-methoxy-1H-indazol-3-yl)-N-methylethan-1-amine]",0,78,375,75,116
"COc1cc(F)cc2[nH]nc(CCN(C)C(C)C)c12 [Example A40, N-(2-(6-fluoro-4-methoxy-1H-indazol-3-yl)ethyl)-N-methylpropan-2-amine]",0,68,> 10000,72,322
"COc1cc(F)cc2[nH]nc(CCN3CCC4CC43)c12 (stereo not drawn) [Example A43, 3-(2-(2-azabicyclo[3.1.0]hexan-2-yl)ethyl)-6-fluoro-4-methoxy-1H-indazole]",102,99,39.9,89,29.7
"COc1ccc(F)c2[nH]nc(CCN(C)C)c12 [Example A44, 2-(7-fluoro-4-methoxy-1H-indazol-3-yl)-N,N-dimethylethan-1-amine]",0,44,222,52,93
"CCN(C)CCc1n[nH]c2c(F)ccc(OC)c12 [Example A45, N-ethyl-2-(7-fluoro-4-methoxy-1H-indazol-3-yl)-N-methylethan-1-amine]",0,61,614,67,163
"COc1ccc(F)c2[nH]nc(CCN(C)C(C)C)c12 [Example A46, N-(2-(7-fluoro-4-methoxy-1H-indazol-3-yl)ethyl)-N-methylpropan-2-amine]",0,0,> 10000,74,133
"COc1ccc(F)c2[nH]nc(CCN3CCC3)c12 [Example A47, 3-(2-(azetidin-1-yl)ethyl)-7-fluoro-4-methoxy-1H-indazole]",17,72,64,88,105
"COc1ccc(F)c2[nH]nc(CCN3CCC4CC43)c12 (stereo not drawn) [Example A49, 3-(2-(2-azabicyclo[3.1.0]hexan-2-yl)ethyl)-7-fluoro-4-methoxy-1H-indazole]",7,59,166,69,216
"COc1cc(F)c2[nH]nc(CCN(C)C)c2c1 [Example A50, 2-(7-fluoro-5-methoxy-1H-indazol-3-yl)-N,N-dimethylethan-1-amine]",2,11,> 10000,79,242
"CCN(C)CCc1n[nH]c2c(F)cc(OC)cc12 [Example A51, N-ethyl-2-(7-fluoro-5-methoxy-1H-indazol-3-yl)-N-methylethan-1-amine]",1,43,1370,85,88
"COc1cc(F)c2[nH]nc(CCN(C)C(C)C)c2c1 [Example A52, N-(2-(7-fluoro-5-methoxy-1H-indazol-3-yl)ethyl)-N-methylpropan-2-amine]",0,0,> 10000,42,650
"COc1cc(F)c2[nH]nc(CCN3CCC3)c2c1 [Example A53, 3-(2-(azetidin-1-yl)ethyl)-7-fluoro-5-methoxy-1H-indazole]",0,48,1180,94,318
"COc1cc(F)c2[nH]nc(CCN3CCC4CC43)c2c1 (stereo not drawn) [Example A55, 3-(2-(2-azabicyclo[3.1.0]hexan-2-yl)ethyl)-7-fluoro-5-methoxy-1H-indazole]",48,87,207,86.2,39.8
"COc1cc2c(CCN3CCC3)n[nH]c2cc1F [Example A56, 3-(2-(azetidin-1-yl)ethyl)-6-fluoro-5-methoxy-1H-indazole]",11,50,3070,90,105
"COc1cc2c(CCN3CC(C)C3)n[nH]c2cc1F [Example A57, 6-fluoro-5-methoxy-3-(2-(3-methylazetidin-1-yl)ethyl)-1H-indazole]",0,3,> 10000,70,610
"COc1cc2c(CCN3CCC3C)n[nH]c2cc1F (stereo not drawn) [Example A58, 6-fluoro-5-methoxy-3-(2-(2-methylazetidin-1-yl)ethyl)-1H-indazole]",0,19,> 10000,57,1130
"COc1cc2c(CCN3CCCC3)n[nH]c2cc1F [Example A59, 6-fluoro-5-methoxy-3-(2-(pyrrolidin-1-yl)ethyl)-1H-indazole]",5,66,3870,79,202
"COc1cc2c(CCN3CCC4CC43)n[nH]c2cc1F (stereo not drawn) [Example A60, 3-(2-(2-azabicyclo[3.1.0]hexan-2-yl)ethyl)-6-fluoro-5-methoxy-1H-indazole]",89,90,255,92,8.12
"COc1ccc2[nH]nc(CCNCc3ccccc3)c2c1 [Example A62, N-benzyl-2-(5-methoxy-1H-indazol-3-yl)ethan-1-amine]",0,85,179,81,29.1
"COc1ccc2[nH]nc(CCNCc3ccccc3OC)c2c1 [Example A63, 2-(5-methoxy-1H-indazol-3-yl)-N-(2-methoxybenzyl)ethan-1-amine]",11,88,32.5,92,2.24
"COc1ccc2[nH]nc(CCNCc3ccccc3F)c2c1 [Example A64, N-(2-fluorobenzyl)-2-(5-methoxy-1H-indazol-3-yl)ethan-1-amine]",0,82,602,79,68.7
"COc1ccc2[nH]nc(CCNCc3cccc(F)c3)c2c1 [Example A65, N-(3-fluorobenzyl)-2-(5-methoxy-1H-indazol-3-yl)ethan-1-amine]",1,81,891,70,91.6
"COc1cccc(CNCCc2n[nH]c3ccc(OC)cc23)c1 [Example A66, 2-(5-methoxy-1H-indazol-3-yl)-N-(3-methoxybenzyl)ethan-1-amine]",0,53,1260,63,50
"CN(C)CCc1n[nH]c2c(F)cccc12 [Example A67, 2-(7-fluoro-1H-indazol-3-yl)-N,N-dimethylethan-1-amine]",0,37,1670,63,422
"CCN(C)CCc1n[nH]c2c(F)cccc12 [Example A68, N-ethyl-2-(7-fluoro-1H-indazol-3-yl)-N-methylethan-1-amine]",0,32,1920,40,469
"CN(C)CCc1n[nH]c2ccc(F)c(F)c12 [Example A69, 2-(4,5-difluoro-1H-indazol-3-yl)-N,N-dimethylethan-1-amine]",5,62,132,79,276
"CCN(C)CCc1n[nH]c2ccc(F)c(F)c12 [Example A70, 2-(4,5-difluoro-1H-indazol-3-yl)-N-ethyl-N-methylethan-1-amine]",0,76,226,78,383
